12 compounds from PubChem BioAssay (NCI) can be followed below.

Structures are written as SMILES.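 48-hour exposure; five concentrations; linearly interpolated endpoints. At the GI50, growth is halved. At the TGI there is no net growth.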 Where a SMILES comes first, the peptide text is derived from it. The star is where a group is joined. Bn = c1ccc(C*)cc1 Where only a bound is given, the exact number is not on record here.

Common to all, as to assay: NCI tumour cell line growth inhibition, 48 h
The test system of experiment [1] is KM12 colon.
Experiment [2] relates to NCI-H226 lung.
In experiment [3] the test system is NCI-H460 lung.
In experiment [4] the test system is OVCAR-8 ovarian.
The subject of experiment [5] is RPMI-8226 leukemia.
Experiment [6] has as its system SK-MEL-2 melanoma.
The subject of experiment [7] is SK-OV-3 ovarian.
For experiment [8], the system named is SNB-19 CNS.
In experiment [9] the test system is T-47D breast.
The test system of experiment [10] is UO-31 renal.

Regarding `O=C1CCc2ccc3c(c21)CC1(Cc2ccccc2C1)C3`, the TGI in [1] is 46 µM; in experiment [2] it was 67.8 µM; in [3], 20.6 µM; in experiment [4], above 100 µM; in [5], above 100 µM; in experiment [6], 38.7 µM. The TGI in experiment [7] is above 100 µM; in [8], above 100 µM; in [9], 59.2 µM; in [10], 34 µM.

Take `COC(=O)C(CC(C)C)NC(=O)C(N)Cc1ccc(OCc2ccccc2)cc1` (stereo unspecified) (H-Tyr(Bn)-Leu-OMe; configuration not given here): the TGI in experiment [1], in experiment [2], in [3], in [4], in experiment [5] and in [6] was above 10 µM in each case. For the same compound, the TGI in experiment [7], in experiment [8], in experiment [9] and in experiment [10] was above 10 µM in each case.

Take `O/C(=C\c1nc2ccccc2nc1NC12CC3CC(CC(C3)C1)C2)c1ccc(Br)cc1`: the TGI in experiment [1], in experiment [2], in [3], in [4], in [5] and in experiment [6] was above 10 µM throughout. The TGI in experiment [7], in [8], in experiment [9] and in experiment [10] was above 10 µM each time.

Consider `COC(=O)[C@H](Cc1ccccc1)NC(=O)c1ccc(CNC(=O)/C=C/c2cccc(Oc3ccccc3)c2)cc1`, for which the TGI in experiment [1] was above 100 µM; in [2], above 100 µM; in experiment [3], above 100 µM; in experiment [4], above 100 µM; in experiment [5], above 100 µM; in experiment [6], 27.7 µM. The TGI in [7], in experiment [8], in experiment [9] and in experiment [10] was above 100 µM each time.

In the case of `Cc1c2ccncc2c(C)c2c1[nH]c1ccccc12`, the TGI in experiment [1] was found to be 2.36 µM; in [2], 5.46 µM; in experiment [3] it was 1.32 µM; in experiment [4] it was 2.32 µM; in [5], 3.11 µM; in experiment [6] it was 6.79 µM. Also, the TGI in experiment [7] was found to be 4.44 µM; in experiment [8] it was 2.09 µM; in experiment [9] it was 0.509 µM; in experiment [10], 4.62 µM. Moreover, the GI50 in experiment [9] is 0.173 µM.

Regarding `NS(=O)(=O)c1ccc(NC(NC(=O)C(C(F)(F)F)C(F)(F)F)(C(F)(F)F)C(F)(F)F)cc1`, the TGI in experiment [1], in [2], in experiment [3], in experiment [4], in experiment [5] and in experiment [6] was above 100 µM in each case. The TGI in [7], in [8], in experiment [9] and in [10] was above 100 µM each time.

Turning to `CC(C)(C)C(=O)C(Cc1ccccc1)C(=O)C(C)(C)C`, the TGI in experiment [1], in experiment [2], in [3], in experiment [4], in experiment [5] and in experiment [6] was above 100 µM throughout. Besides, the TGI in experiment [7], in experiment [8], in experiment [9] and in experiment [10] was above 100 µM throughout.

As to `C=C(C)[C@@]1(O[Si](C)(C)C)CCCC[C@@H]1CC(Sc1ccccc1)Sc1ccccc1`, the TGI in experiment [1] came out at 23.8 µM; in [2] it was 32.2 µM; in experiment [3] it was 29.6 µM; in experiment [4], 31.7 µM; in experiment [5], 49.3 µM; in experiment [6], 31 µM. Moreover, the TGI was 39.7 µM in experiment [7], 30.6 µM in experiment [8], 18.8 µM in experiment [9] and 27.3 µM in experiment [10].

Turning to `Cc1c(C#N)c(N)n(C2OCC(O)C(O)C2O)c(=S)c1C#N` (stereo unspecified), the TGI in experiment [1], in experiment [2], in experiment [3], in [4], in experiment [5] and in [6] was above 100 µM each time. The TGI in experiment [7], in experiment [8], in [9] and in experiment [10] was above 100 µM each time.

In the case of `COP(=O)(OC)C12CCOCCN1c1ccccc1C2=O` (stereo unspecified), the TGI in experiment [1], in experiment [2], in experiment [3], in experiment [4], in experiment [5] and in [6] was above 100 µM each time. Further, the TGI in [7], in experiment [8], in experiment [9] and in experiment [10] was above 100 µM in each case.

For `CCOC(=O)C1CN(C2CC2)CCC1=O` (stereo unspecified), the TGI in experiment [1], in experiment [2], in experiment [3], in experiment [4], in experiment [5] and in experiment [6] was above 100 µM each time. Besides, the TGI in experiment [7], in experiment [8], in [9] and in experiment [10] was above 100 µM in each case.

For the compound `COC(=O)C1(Cc2ccc3c(c2)CCC3)Cc2ccccc2C1=O` (stereo unspecified), the TGI in experiment [1] is 20.3 µM; in experiment [2], 50.5 µM; in experiment [3], 93.6 µM; in experiment [4], above 100 µM; in experiment [5], 58.7 µM; in experiment [6], 38.7 µM. Moreover, the TGI is 85.8 µM in [7], above 100 µM in experiment [8], above 100 µM in experiment [9] and 84.4 µM in experiment [10].
